Measurements as given in patent US7635788B2, “Alpha-amino acid derivatives with antiinflammatory activity” (Italfarmaco SpA, priority 2004, dated 2009).
pIC50: −log10 of the molar value.

What was measured:
[1] = test system: TNFα production by peripheral blood mononucleocytes stimulated with LPS; assay: Inhibition of TNFα production by human monocytes stimulated with LPS; format: cell-based; conditions: LPS 10 ng/ml, 24 hours, ELISA
Experimental: The compounds were dissolved in DMSO at a final concentration of 10 mM.
The solutions for the assay were prepared by diluting the mother solutions in RPMI 1640 with the addition of 1% FCS and 0.01% DMSO and were filtered with 0.2 μm filters.
The peripheral blood mononucleocytes were obtained from blood from healthy donors by separation in a Ficoll-Hypaque gradient [C. G. Figdor, et al. Blood, 1982, 60: 46-53]. The cells were sown in 96-well plates, at a concentration of approx. 500,000 cells per well, suspended in RPMI 1640 containing 1% FCS and were incubated at 37° C. in the presence of different concentrations (from 10^−6 to 10^−11M) of the compounds to be investigated. After 1 hour, LPS was added (at a final concentration of 10 ng/ml; obtained from E. coli 055:B5) and the plates were incubated at 37° C. for a further 24 hours. At the end of this period, the supernatants were collected and used for the determination of TNFα content by means of ELISA (DuoSet ELISA kit; R&D Systems, Minneapolis, Minn., USA).
The concentration of TNFα was calculated using a calibration curve and the IC50 values (the concentration which brings about 50% inhibition of the production of the cytokine) were calculated from the curve obtained by plotting the percentage inhibition values for each individual concentration of the compound under investigation.

[2] = test system: human hepatoma cell line Hep-G2; assay: Cytotoxicity towards tumour cells in vitro (Cell Titer 96 formazane colorimetric assay); format: cell-based; conditions: 48 h, percentage inhibition of the formation of formazane relative to the control
Experimental: The cytotoxicity of some compounds described in the preceding Examples was evaluated in vitro on human hepatoma cell line Hep-G2, by means of a commercial colorimetric method (Cell Titer 96® Aque ous One Solution Cell Proliferation Assay—Promega); the method determines the number of viable cells on the basis of their capacity to metabolise a tetrazolium salt producing formazane. The quantity of formazane produced is proportional to the number of viable cells.
The Hep-G2 cells are distributed 96 well microplates at a density of 4×10^4 cells/well (100 μl), in M199 medium containing 10% foetal bovine serum and supplements (complete medium).
After 24 hours' incubation (37° C., 5% CO2, 90% humidity), the cells are washed once and the medium is replenished with 200 μl of complete medium containing the substances to be tested at the final concentration of 10^−5, 10^−6 and 10^−7M. The test is performed in triplicate.
The plates are incubated for a further 48 h, at the end of which 100 μl of medium are removed and 20 μl/well of staining solution are added in accordance with the supplier's instructions. Optical density (λ=490 nm) is read after 1 hour's incubation at 37° C. using a plate reader (Victor2—Wallac Perkin Elmer).

SMILES | pIC50 ([1]; Monocyte) | Cytotoxicity at 10^−5 M [2] | Cytotoxicity at 10^−6 M [2] | pIC50 [1]
O=C(NO)c1ccc(NC(=O)[C@@H](Cc2ccc3ccccc3c2)NC(=O)c2ccccc2)cc1 [Example 1a, 4-(2(R)-Benzoylamino-3-naphthalen-2-yl-propionylamino)-N-hydroxy-benzamide] | 8.52 | 75.2% | 22.6% | 
CC(=O)N[C@H](Cc1ccc2ccccc2c1)C(=O)Nc1ccc(C(=O)NO)cc1 [Example 2b, 4-(2(R)-Acetylamino-3-naphthalen-2-yl-propionylamino)-N-hydroxy-benzamide] | 7.29 | 48.3% | 10.6% | 
CC(=O)N[C@H](C(=O)Nc1ccc(C(=O)NO)cc1)C1Cc2ccccc2C1 [Example 2c, 4-(2(S)-Acetylamino-2-indan-2-yl-acetylamino)-N-hydroxy-benzamide] | 7.25 | 78.3% | 28.5% | 
CC(=O)N[C@@H](Cc1ccc2ccccc2c1)C(=O)Nc1ccc(C(=O)NO)cc1 [Example 2d, 4-(2(S)-Acetylamino-3-naphthalen-2-yl-propionylamino)-N-hydroxy-benzamide] | 8.36 | 56.2% | 9.6% | 
CC(=O)N[C@@H](Cc1ccccc1)C(=O)Nc1ccc(C(=O)NO)cc1 [Example 2e, 4-(2(S)-Acetylamino-3-phenyl-propionylamino)-N-hydroxy-benzamide] | 7.90 | 17.1% | 13.3% | 
O=C(NO)c1ccc(NC(=O)[C@H](Cc2ccc(-c3ccccc3)cc2)NC(=O)c2ccccc2)cc1 [Example 2f, 4-(2(S)-Benzoylamino-3-biphenyl-4-yl-propionylamino)-N-hydroxy-benzamide] | 7.14 | 81.6% | 22.7% | 
O=C(NO)c1ccc(NC(=O)[C@H](Cc2ccc3ccccc3c2)NC(=O)c2ccccc2)cc1 [Example 2g, 4-(2(S)-Benzoylamino-3-naphthalen-2-yl-propionylamino)-N-hydroxy-benzamide] | 8.21 | 76.5% | 43.2% | 
O=C(NO)c1ccc(NC(=O)[C@H](Cc2ccccc2)NC(=O)c2ccccc2)cc1 [Example 2h, 4-(2(S)-Benzoylamino-3-phenyl-propionylamino)-N-hydroxy-benzamide] | 7.95 | 77.4% | 31.2% | 
CC(=O)N[C@@H](Cc1ccc(O)cc1)C(=O)Nc1ccc(C(=O)NO)cc1 [Example 2i, 4-[2(S)-Acetylamino-3-(4-hydroxy-phenyl)-propionylamino]-N-hydroxy-benzamide] | 7.88 | 12.2% | 15.7% | 
CC(=O)N[C@@H](Cc1ccc(C(F)(F)F)cc1)C(=O)Nc1ccc(C(=O)NO)cc1 [Example 2j, 4-[2(S)-Acetylamino-3-(4-trifluoromethyl-phenyl)-propionylamino]-N-hydroxy-benzamide] | 8.34 | 39.3% | 15.8% | 
O=C(NO)c1ccc(NC(=O)[C@H](Cc2ccc(O)cc2)NC(=O)c2ccccc2)cc1 [Example 2k, 4-[2(S)-Benzoylamino-3-(4-hydroxy-phenyl)-propionylamino]-N-hydroxy-benzamide] | 6.83 | 54.4% | 27.7% | 
Nc1ccc(C(=O)N[C@H](Cc2ccc3ccccc3c2)C(=O)Nc2ccc(C(=O)NO)cc2)cc1 [Example 2l, 4-Amino-N-[1(R)-(4-hydroxycarbamoyl-phenylcarbamoyl)-2-naphthalen-2-yl-ethyl]-benzamide] | 7.53 | 61.9% | 14.4% | 
Nc1ccc(C(=O)N[C@@H](Cc2ccc3ccccc3c2)C(=O)Nc2ccc(C(=O)NO)cc2)cc1 [Example 2m, 4-Amino-N-[1(S)-(4-hydroxycarbamoyl-phenylcarbamoyl)-2-naphthalen-2-yl-ethyl]-benzamide] | 7.57 | 72.4% | 24.5% | 
O=C(NO)c1ccc(NC(=O)[C@@H](Cc2ccc3ccccc3c2)NC(=O)c2cncc(Br)c2)cc1 [Example 2n, 5-Bromo-N-[1(R)-(4-hydroxycarbamoyl-phenylcarbamoyl)-2-naphthalen-2-yl-ethyl]-nicotinamide] | 8.17 | 68.2% | 15.9% | 
O=C(NO)c1ccc(NC(=O)[C@H](Cc2ccc(C(F)(F)F)cc2)NC(=O)c2cncc(Br)c2)cc1 [Example 2o, 5-Bromo-N-[1(S)-(4-hydroxycarbamoyl-phenylcarbamoyl)-2-(4-trifluoromethyl-phenyl)-ethyl]-nicotinamide] | 6.70 | 72.4% | 34.8% | 
O=C(NO)c1ccc(NC(=O)[C@H](Cc2ccc(-c3ccccc3)cc2)NC(=O)c2cncc(Br)c2)cc1 [Example 2p, 5-Bromo-N-[1(S)-(4-hydroxycarbamoyl-phenylcarbamoyl)-2-biphenyl-4-yl-ethyl]-nicotinamide] | 7.38 | 61.7% | 10.5% | 
O=C(NO)c1ccc(NC(=O)[C@H](Cc2ccc3ccccc3c2)NC(=O)c2cncc(Br)c2)cc1 [Example 2q, 5-Bromo-N-[1(S)-(4-hydroxycarbamoyl-phenylcarbamoyl)-2-naphthalen-2-yl-ethyl]-nicotinamide] | 7.64 | 53.9% | 11.7% | 
O=C(NO)c1ccc(NC(=O)[C@@H](Cc2ccc3ccccc3c2)NC(=O)c2ccc3c(c2)OCO3)cc1 [Example 2r, N-[1(R)-(4-hydroxycarbamoyl-phenylcarbamoyl)-2-naphthalen-2-yl-ethyl]-amide of benzo[1,3]dioxole-5-carboxylic acid] |  | 72.5% | 16.6% | 8.77
O=C(NO)c1ccc(NC(=O)[C@H](Cc2ccc(O)cc2)NC(=O)c2ccc3c(c2)OCO3)cc1 [Example 2s, N-[1(S)-(4-hydroxycarbamoyl-phenylcarbamoyl)-2-(4-hydroxy-phenyl)-ethyl]-amide of benzo[1,3]dioxole-5-carboxylic acid] |  |  |  | 6.00
O=C(NO)c1ccc(NC(=O)[C@H](Cc2ccc3ccccc3c2)NC(=O)c2ccc3c(c2)OCO3)cc1 [Example 2t, N-[1(S)-(4-hydroxycarbamoyl-phenylcarbamoyl)-2-naphthalen-2-yl-ethyl]-amide of benzo[1,3]dioxole-5-carboxylic acid] |  | 79.3% | 48.5% | 8.32
O=C(NO)c1ccc(NC(=O)[C@H](Cc2cccc(F)c2)NC(=O)c2ccc3c(c2)OCO3)cc1 [Example 2u, N-[1(S)-(4-hydroxycarbamoyl-phenylcarbamoyl)-2-(3-fluoro-phenyl)-ethyl]-amide of benzo[1,3]dioxole-5-carboxylic acid] |  | 62.9% | 12.9% | 8.17
O=C(NO)c1ccc(NC(=O)[C@@H](Cc2ccc3ccccc3c2)NC(=O)c2ccc3ccccc3c2)cc1 [Example 2v, N-[1(R)-(4-hydroxycarbamoyl-phenylcarbamoyl)-2-naphthalen-2-yl-ethyl]-amide of naphthalene-2-carboxylic acid] |  | 69.4% | 11.8% | 7.77
O=C(NO)c1ccc(NC(=O)[C@H](Cc2ccc(C(F)(F)F)cc2)NC(=O)c2ccc3ccccc3c2)cc1 [Example 2w, N-[1(S)-(4-hydroxycarbamoyl-phenylcarbamoyl)-2-(4-trifluoromethyl-phenyl)-ethyl]-amide of naphthalene-2-carboxylic acid] |  | 65.7% | 25.3% | 7.63
O=C(NO)c1ccc(NC(=O)[C@H](Cc2ccccc2)NC(=O)c2ccc3ccccc3c2)cc1 [Example 2x, N-[1(S)-(4-hydroxycarbamoyl-phenylcarbamoyl)-2-phenyl-ethyl]-amide of naphthalene-2-carboxylic acid] |  | 77.3% | 15.3% | 8.07
